Results filed as inconclusive are left out.

This test deals with M. tuberculosis H37Rv growth inhibition, 7H9 media. The experiment in a line: M. tuberculosis growth inhibition, HTS (AID 449762).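 For all read-outs here: bacterial growth assessed after seven days of incubation.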 The settings on record: for IC90: measured here: IC90 growth inhibition.

As to `Nc1c(N(CCC2=CCCCC2)C(=O)c2ccc([N+](=O)[O-])o2)c(=O)[nH]c(=O)n1Cc1ccccc1`, the IC50 (as a rule, the concentration needed to halve the response being measured) was 16.6 µM and the IC90 (as a rule, the concentration needed for an effect of 90%) amounted to 30.2 µM. Turning to `CCCOC(=O)c1ccc(-c2ccc(C=O)o2)cc1`, the IC50 was 0.82 µM and the IC90 was greater than 100 µM.

For `COc1ccc(C2CC(=O)C3=C(C2)NC(C)=C(C#N)C3c2ccc(N(C)C)cc2)cc1` (stereo unspecified), the IC50 was 19.6 µM and the IC90 was 33 µM.

`O=C(N/N=C/c1cn(-c2ccccc2)nc1-c1cccs1)c1ccc(Cl)cc1` had an IC90 greater than 100 µM. Regarding `Oc1ccc(/C=N/n2c3ccccc3c3ccccc32)cc1`, the IC90 was greater than 100 µM. Turning to `O=C(c1ccc(-c2cccc(C(F)(F)F)c2)o1)N1CCN(c2ccccc2O)CC1`, the IC50 is 18.5 µM and the IC90 is 26.1 µM. On to `COC1=CC(=O)c2ccccc2C1=O`, for which the IC50 was 16 µM and the IC90 came out at 21.9 µM. Regarding `O=c1cc(N=Nc2ccc(Cl)cc2)[nH]c(=O)[nH]1`, the IC50 is 42 µM and the IC90 is greater than 100 µM. On to `O=c1cc(/C=C/c2ccccc2)oc2ccccc12`, for which the IC50 is 36.4 µM and the IC90 is greater than 100 µM. Turning to `CSc1nn(-c2ccc(C(=O)OCC(=O)NC(=O)NC(C)C)cc2)c(=S)s1`, the half-inhibitory concentration (IC50) is 23.1 µM and the IC90 is 25.9 µM. As for `C=C(C)CSc1cc(C)c(C#N)c2nc3ccccc3n12`, the IC50 is 34.3 µM and the IC90 worked out at 48.1 µM. In turn, `C/C(=C\C(=O)c1ccccc1)Nc1ccc(Cl)c(Br)c1` registered an IC90 greater than 100 µM. Take `CC(=O)c1ccc(Sc2nnnn2-c2ccccc2)c([N+](=O)[O-])c1`: the IC50 is 4.48 µM and the IC90 was 13.3 µM. Turning to `CCCCn1c(SCc2ncc(-c3ccccc3)o2)nc2cc(S(N)(=O)=O)ccc21`, the IC50 was 3.3 µM and the IC90 was found to be 5.84 µM.

As to `O=C(Cc1ccccc1)N/N=C/c1ccc2cccc(O)c2n1`, the concentration for half-maximal inhibition (IC50) is 7.67 µM and the IC90 amounted to 12.3 µM. Turning to `Cc1ccc(-n2c(C)cc(/C=N/NC(N)=S)c2C)cc1`, the IC50 is 12.7 µM and the IC90 was found to be 24.6 µM. For `CCOc1ccc(C(=O)CCN2CCCCCC2)cc1`, the IC50 is 11.9 µM and the IC90 stood at 17.4 µM. In the same order, the values of `CCCCCOc1ccc(NC2=CC(=O)CCC2)cc1` are 52.4 µM and greater than 100 µM.

With `Oc1ccc(F)c2cccnc12`, the IC50 is 5.26 µM and the IC90 was found to be 6.88 µM. For the compound `O=C(NCc1nnnn1-c1ccc(F)cc1)c1ccc([N+](=O)[O-])o1`, the IC50 was 16.5 µM and the IC90 was 74.1 µM.

Regarding `Cn1c(/C=N/Nc2nc3ccccc3[nH]2)nc2ccccc21`, the IC50 is 40.1 µM and the IC90 came to 61.4 µM.

For the compound `NC(=O)c1cccn1-c1ncc(C(F)(F)F)cc1Cl`, the IC50 was 6.8 µM and the IC90 turned out to be 16.6 µM. The corresponding values for `COc1ccc(C(CCNCc2ccc(OC(C)C)cc2)C(C)C)cc1` (stereo unspecified) are 23.3 µM and 26.9 µM. In the same order, the values of `COc1nc(-c2ccccc2)cc(-c2ccc(OC)c(OC)c2)n1` are 45.3 µM and greater than 100 µM. Take `O=C(C[n+]1ccc(C(=O)N/N=C/c2ccc(O)cc2)cc1)c1ccccc1`: the IC50 was 4.47 µM and the IC90 is greater than 100 µM.

In the case of `C=C1CCC[C@]2(C)C[C@H]3OC(=O)C(CNC(C)CCCC(C)C)[C@H]3CC12` (stereo partly specified), the IC50 is 22.4 µM and the IC90 amounted to 24.2 µM. Turning to `CCOC(=O)COc1ccc2c(c1)C(=O)CC(C)(c1cccnc1)O2` (stereo unspecified), the IC50 was 9.2 µM and the IC90 stood at 18.4 µM.

For `Cc1cc(NC(=O)c2sccc2C)n(-c2nc3ccccc3[nH]2)n1`, the IC50 is 2.94 µM and the IC90 was greater than 100 µM.

Take `CC(C)(C)c1ccc(Cn2c(=N)n(CC(O)c3ccco3)c3ccccc32)cc1` (stereo unspecified): the IC50 was 17.6 µM and the IC90 is 22.2 µM.

In the case of `Cc1ccc(NS(=O)(=O)c2ccc(NC(=O)CN(c3cc([N+](=O)[O-])ccc3C)S(C)(=O)=O)cc2)c(C)c1`, the IC50 was 41.3 µM and the IC90 is greater than 100 µM. For the compound `COc1ccc(-c2nnc(NC(=O)c3ccc([N+](=O)[O-])o3)o2)c(OC)c1`, the IC50 was 1.05 µM and the IC90 was determined as 3.04 µM.

In the case of `O=C(CCc1c[nH]c2ccccc12)N1CCN(S(=O)(=O)c2ccccc2)CC1`, the IC50 is 94.3 µM and the IC90 was greater than 100 µM. In the case of `COc1ccc(NS(=O)(=O)c2ccc3nc(COc4cccc5ccccc45)[nH]c3c2)cc1`, the IC50 was 63.2 µM and the IC90 is greater than 100 µM. The corresponding values for `COc1cc(C(=O)N/N=C/c2cc([N+](=O)[O-])cs2)cc(OC)c1OC` are less than 0.2 µM and 25.9 µM. The corresponding values for `O=C(Nc1cccc(-c2nc3ccccc3s2)c1)c1cc(-n2cnnc2)ccc1Cl` are 11.6 µM and 13.1 µM. Regarding `COc1ccc(-c2cc(C3CCN(C(=O)OC(C)(C)C)CC3)[nH]n2)cc1`, the IC50 was 17 µM and the IC90 is 30.6 µM. On to `Cc1nc2scc(-c3cccs3)c2c(=O)n1-n1cccc1`, for which the IC50 is 56.1 µM and the IC90 is greater than 100 µM. With `O=C1/C(=N\S(=O)(=O)c2cccs2)C([n+]2ccc(CCCc3ccccc3)cc2)=C([O-])c2ccccc21`, the IC50 is 18.2 µM and the IC90 was 22.1 µM. As to `Nc1nonc1C(=O)NCCNCc1c(OCc2ccccc2F)ccc2ccccc12`, the IC50 was 39.8 µM and the IC90 came out at 50.5 µM. `CCSc1ncc(/C=N/Nc2ccccc2)n1C`: the IC50 is 89.3 µM and the IC90 is greater than 100 µM. As for `CCNc1nc(NCC)nc(N/N=C/c2ccc([N+](=O)[O-])o2)n1`, the IC50 was 0.99 µM and the IC90 stood at 1.67 µM. The corresponding values for `O=C(Nc1cccnc1Cl)c1cc(-c2ccco2)on1` are 41.4 µM and greater than 100 µM.

As to `COC(=O)c1ccc(COC(=O)CCc2nc(-c3ccccc3)c(-c3ccccc3)o2)cc1`, the IC50 was 21.5 µM and the IC90 was greater than 100 µM. For the compound `O=c1[nH]c2ccccc2c2oc(CCl)nc12`, the IC50 is 1.14 µM and the IC90 was 19.2 µM.

With `O=c1cc2[nH]c3ccccc3c(=O)n2nc1-c1ccccc1`, the IC50 is 6.91 µM and the IC90 turned out to be 18 µM. In the case of `CC(=O)c1cccc(NC(=S)NC2CCCCCCC2)c1`, the IC50 was 23.6 µM and the IC90 was found to be 26.2 µM. The corresponding values for `NC1=NC2(CCC(c3ccccc3)CC2)n2c(nc3ccccc32)N1` (stereo unspecified) are 28.6 µM and 38.3 µM.

As to `CCc1ccc(C2=NN(c3ccc(S(N)(=O)=O)cc3)C(c3ccc(F)cc3)C2)cc1` (stereo unspecified), the IC50 is 36.2 µM and the IC90 worked out at 48.7 µM. On to `CCCc1cc(NC(=O)CCl)n(-c2ccccc2)n1`, for which the IC50 is 0.7 µM and the IC90 worked out at 2.29 µM. As to `CCOC(=O)Cc1csc(NC(=O)c2c(O)c3c(n(CC(C)C)c2=O)CCCC3)n1`, the IC50 was 5.19 µM and the IC90 was determined as 72 µM. As for `Cc1cc(C(=O)COC(=O)C2=COCCO2)c(C)n1-c1cccc(F)c1`, the IC50 is 4.83 µM and the IC90 is greater than 100 µM. As to `O=C(Nc1ccc(-n2cccc2)cc1)C1CC1`, the IC50 is 1.84 µM and the IC90 was greater than 100 µM. On to `O=C(c1ccc(CNc2c(N3CCCC3)c(=O)c2=O)cc1)N1CC=C(c2ccccc2)CC1`, for which the IC50 was 0.76 µM and the IC90 is 0.87 µM. Turning to `C(=N\Nc1ccc2ccccc2n1)/c1ccc2c(c1)OCCO2`, the IC50 was 2.77 µM and the IC90 was determined as 4.03 µM. The corresponding values for `CCN(CCNCC(O)COc1ccccc1C(C)C)c1cccc(C)c1` (stereo unspecified) are 21.1 µM and 28.1 µM. In the same order, the values of `Cc1ccc(C(c2nnnn2Cc2cccs2)N2CCN(Cc3ccc4c(c3)OCO4)CC2)cc1` (stereo unspecified) are 21 µM and 27.9 µM. In the same order, the values of `Cc1ccc(-n2c(Cl)c(Cl)nc(Cl)c2=O)cc1` are 5.97 µM and 18.3 µM.

With `Cc1ccc(Cl)cc1N1CCN(Cc2nc3ccsc3c(=O)[nH]2)CC1`, the IC50 was 83.1 µM and the IC90 was greater than 100 µM. On to `CC(C)(C)c1ccc(C(=O)NNc2cc(N3CCCCC3)nc(N3CCCCC3)n2)cc1`, for which the IC50 is 60.6 µM and the IC90 came to 74.8 µM. The corresponding values for `CC1(C)c2[nH]c3ccccc3c2C[C@@H]2C(=O)N(Cc3ccccc3F)C(=O)N21` are 47.1 µM and greater than 100 µM. `CCOc1ccc(-n2cc(-c3ccccc3)c3c(=O)[nH]cnc32)cc1`: the IC50 is 8.41 µM and the IC90 came out at 27.5 µM. In the same order, the values of `Cn1cc(/C=C2\C(=O)NC(=O)N(c3ccccc3)C2=O)c2ccccc21` are 10.7 µM and 24.2 µM. Regarding `CC(C)OC(=O)c1ccc(NC(=S)NC(=O)c2cncc(Br)c2)cc1`, the IC50 was 52.4 µM and the IC90 is greater than 100 µM. In the case of `CC(=O)c1ccc(N2CCC(c3cc(-c4ccc(Cl)cc4Cl)n[nH]3)CC2)c([N+](=O)[O-])c1`, the IC50 is 18.2 µM and the IC90 is 26.1 µM.

`Cc1ccc(NC(=O)COc2ccc(-n3ccnc3)cc2)cc1Cl`: the IC50 was 24.8 µM and the IC90 came out at 28.8 µM.

For `COc1ccc(N(CC(=O)Nc2cc(Cl)ccc2C)S(=O)(=O)c2c(C)n[nH]c2C)cc1`, the IC50 is 45.8 µM and the IC90 came out at 51.2 µM. For `Cc1ccc(C(=O)O/N=C\c2ccc(N3CCCCC3)c([N+](=O)[O-])c2)cc1`, the IC50 is 22.1 µM and the IC90 amounted to 49 µM. In the same order, the values of `COc1ccc(-c2cc(C3CCN(Cc4cccc(C(F)(F)F)c4)CC3)[nH]n2)cc1` are 10.6 µM and 15.9 µM.

Regarding `Cc1ccc(Nc2nc(N)nc(CN3CCc4ccccc4C3)n2)cc1`, the IC50 was 2.2 µM and the IC90 was 8.89 µM. `CCOC(=O)C(C)Sc1nc(-c2cccs2)ccc1C#N` (stereo unspecified): the IC50 is 37.6 µM and the IC90 stood at 50.8 µM. `CCOC(=O)c1ccc(NC(=O)C(C)Sc2nc(O)c(-c3ccccc3)c(=O)[nH]2)cc1` (stereo unspecified): the IC50 is 5.47 µM and the IC90 came to 22.6 µM. Regarding `COc1ccc(-c2nc(NC(=O)Cn3ccc(C(F)(F)F)n3)sc2C)cc1`, the IC50 is less than 0.2 µM and the IC90 turned out to be 2.92 µM.

Source of the values: PubChem BioAssay AID449762 (Southern Research Specialized Biocontainment Screening …, 2010).
